Reference: PMC10740580, “Benzothiazole-Phthalimide Hybrids as Anti-Breast Cancer and Antimicrobial Agents” (Antibiotics, 2023)

System: BALB/3T3 cells
Assay: MTT assay, BALB/3T3 fibroblasts
Assay type: cell-based
Conditions: mouse fibroblasts, read-out: IC50 BALB/3T3 (MTT, lack of toxicity)
Experimental: Cells were treated for 24 h, and N-acetylcystein (NAC), a compound well-known for its antioxidant capacity, was used as a reference molecule. […] Compound 3h was able to reduce ROS formation by 61.4 ± 2% at the maximum concentration of 160 μM in the BALB/3T3 cells, as shown by the quantification of fluorescence intensity, proving compound 3h to be a good ROS scavenger.
The four cell lines used in this work (MCF-7, MDA-MB-231, MCF-10A, and 3T3-L1) were obtained from the American Type Culture Collection (ATCC, Manassas, VA, USA). All cell lines were maintained at 37 °C in a humidified atmosphere of 95% air and 5% CO2 and periodically screened for contamination. […]
Cell viability was evaluated by means of the 3-(4,5-dimethylthiazol-2-y1)-2,5-diphenyltetra zolium bromide (MTT, Sigma-Aldrich, Milan, Italy) assay. […] Cells were lysed with DMSO after 2 h of incubation at 37 °C, and optical density at 570 nm was then determined with a microplate reader. Using GraphPad Prism 9 software (GraphPad Inc., San Diego, CA, USA), the mean absorbance for each sample was expressed as a percentage over the control and plotted vs. drug concentrations to establish the IC50 values. […]

For `O=C1c2ccccc2C(=O)N1c1nc2ccc(Oc3ccccc3)cc2s1` [3h, 2-[6-Phenoxy-1,3-benzothiazol-2-yl]-1H-isoindole-1,3(2H)-dione], which IC50 is on record?
The IC50 was greater than 200 µM.
